In patent US7569724B2, “Carbamic acid compounds comprising an amide linkage as HDAC inhibitors” (Topotarget UK Limited, priority 2000, dated 2009):
Where a name gives a salt, the structure may show the parent alone. Read-outs that look alike come from different tables or passages of the source.

Key:
HDAC (HeLa cell extract) = experiment: Primary assay: deacetylase activity, HeLa cell extract as source of HDAC; type: biochemical, human; conditions: HeLa cell extract
Source text: Briefly, this assay relies on the release of radioactive acetate from a radioactively labelled histone fragment by the action of HDAC enzyme. Test compounds, which inhibit HDAC, reduce the yield of radioactive acetate. Signal (e.g., scintillation counts) measured in the presence and absence of a test compound provide an indication of that compound's ability to inhibit HDAC activity. Decreased activity indicates increased inhibition by the test compound.
The histone fragment was an N-terminal sequence from histone H4, and it was labelled with radioactively labelled acetyl groups using tritiated acetylcoenzyme A (coA) in conjunction with an enzyme which is the histone acetyltransferase domain of the transcriptional coactivator p300. […] The acetylated peptide was then separated from free acetyl coA by size exclusion chromatography on Sephadex G-15 (Sigma G-15-120), using distilled H2O as the mobile phase.
After purification of the radiolabelled histone fragment, it was incubated with a source of HDAC (e.g., an extract of HeLa cells (a rich source of HDAC), recombinantly produced HDAC1 or HDAC2) and any released acetate was extracted into an organic phase and quantitatively determined using scintillation counting. By including a test compound with the source of HDAC, that compound's ability to inhibit the HDAC was determined.
The HeLa cell extract was made from HeLa cells (ATCC Ref. No. CCL-2) by freeze-thawing three times in 60 mM TrisCl pH 8.0, 450 mM NaCl, 30% glycerol. Two cell volumes of extraction buffer were used, and particulate material was centrifuged out (20800 g, 4° C., 10 min). The supernatant extract having deacetylase activity was aliquotted and frozen for storage.
A source of HDAC (e.g., 2 μL of crude HeLa extract, 5 μL of HDAC1 or HDAC2; in elution buffer, as above) was incubated with 3 μL of radioactively labelled peptide along with appropriate dilutions of candidate compounds (1.5 μL) in a total volume of 150 μL of buffer (20 mM Tris pH 7.4, 10% glycerol). The reaction was carried out at 37° C. for one hour, after which the reaction was stopped by adding 20 μL of 1 M HCl/0.4 M sodium acetate. […] Radioactivity was measured using a Tri-Carb 2100TR Liquid Scintillation Analyzer (Packard).
Percent activity (% activity) for each test compound was calculated as: % activity={(S^C−B)/(S^o−B)}×100 wherein S^C denotes signal measured in the presence of enzyme and the compound being tested, S^o denotes signal measured in the presence of enzyme but in the absence of the compound being tested, and B denotes the background signal measured in the absence of both enzyme and compound being tested.

HeLa cells = experiment: Secondary assay: cell proliferation WST-1, HeLa; type: cell-based; conditions: Homo sapiens, 48 h, read-out: Cell Proliferation Inhibition WST-1 (IC50 unless otherwise specified) HeLa
Description: Compounds with HDAC inhibition activity, as determined using the primary assay, were subsequently evaluated using secondary cell-based assays. The following cell lines were used:
HeLa—Human cervical adenocarcinoma cell line (ATCC ref. No. CCL-2).
Cells were plated in 96-well plates at 3-10×10^3 cells/well in 100 μL of culture medium. The following day, different concentrations of candidate compounds were added and the cells incubated at 37° C. for 48 h. Subsequently, 10 μL/well of WST-1 reagent was added and the cells reincubated for 1 hour. After the incubation time, absorbance was measured.
WST-1 is a tetrazolium salt which is cleaved to formazan dye by cellular enzymes. An expansion in the number of viable cells results in an increase in the overall activity of mitochondrial dehydrogenases in the sample. This augmentation in the enzyme activity leads to an increase in the amount of formazan dye formed, which directly correlates to the number of metabolically active cells in the culture. The formazan dye produced is quantified by a scanning multiwell spectrophotometer by measuring the absorbance of the dye solution at 450 nm wavelength (reference wavelength 690 nm).
Percent activity (% activity) in reducing the number of viable cells was calculated for each test compound as: % activity={(S^C−B)/(S^o−B)}×100 wherein S^C denotes signal measured in the presence of the compound being tested, S^o denotes signal measured in the absence of the compound being tested, and B denotes the background signal measured in blank wells containing medium only.
IC50 values were calculated using the software package Prism 3.0 (GraphPad software Inc., San Diego, Calif.), setting top value at 100 and bottom value at 0.

[1] = read-out: HDAC Inhibition (IC50 unless otherwise specified) HeLa
[2] = comparative tables, no unit in cell, read-out: HeLa IC50
[3] = comparative tables, read-out: HeLa IC50

Structure (SMILES)	HDAC Inhibition HeLa, percent (HDAC (HeLa cell extract); @ 1 μM) [% @ 1 μM]	HDAC Inhibition HeLa, percent (HDAC (HeLa cell extract); @ 500 nM) [% @ 500 nM]	further results
CN(C)c1ccc(CC(=O)NCCCC(=O)NO)cc1 [PX082532, 4-(2-(4-Dimethylamino-phenyl)-acetylamino)-N-hydroxy-butyramide]	21	–	–
CN(C)c1ccc(C(=O)NCCCC(=O)NO)c2ccccc12 [PX082533]	2	–	percent HDAC inhibition at the stated concentration (HDAC (HeLa cell extract); comparative tables, @ 1 μM): 2% @ 1 μM
COc1ccc(NC(=O)CCCC(=O)NO)cc1 [PX082546, Pentanedioic acid hydroxyamide (4-methoxy-phenyl)-amide]	36	–	–
CC(C)c1ccc(NC(=O)CCCC(=O)NO)cc1 [PX082548, Pentanedioic acid hydroxyamide (4-isopropyl-phenyl)-amide]	41	–	–
COc1ccc(NC(=O)CCCC(=O)NO)cc1OC [PX082549, Pentanedioic acid (3,4-dimethoxy-phenyl)-amide hydroxyamide]	43	–	–
CN(C)c1ccc(/C=C/C(=O)NCCCC(=O)NO)cc1 [PX083447, 4-(3-(4-Dimethylamino-phenyl)-acryoylamino)-N-hydroxy-butyramide]	15	–	–
O=C(/C=C/C=C/c1ccccc1)NCCC(=O)NO [PX083448]	–	–	IC50 (HDAC (HeLa cell extract); [1]): > 1 µM; IC50 (HDAC (HeLa cell extract); [2]): > 1 µM
O=C(/C=C/c1ccc([N+](=O)[O-])cc1)NCCCC(=O)NO [PX083803, N-Hydroxy-4-(3-4-(nitro-phenyl)-acryoylamino)-butyramide]	15	–	–
O=C(/C=C/c1ccc(C(F)(F)F)cc1)NCCCC(=O)NO [PX083804, N-Hydroxy-4-(3-4-(trifluoromethyl-phenyl)-acryoylamino)-butyramide]	14	–	–
O=C(/C=C/c1ccccc1)NCCC(=O)NO [PX083806]	19	–	–
O=C(/C=C/c1ccc([N+](=O)[O-])cc1)NCCC(=O)NO [PX083807, N-(2-Hydroxycarbamoyl-ethyl)-3-(4-nitro-phenyl)-acryamide]	9	–	–
O=C(/C=C/C=C/c1ccccc1)NCCCC(=O)NO [PX083808]	–	–	IC50 (HDAC (HeLa cell extract); [1]): 20 µM; IC50 (HDAC (HeLa cell extract); [2]): > 20 µM
COc1ccc(C(=O)NCCCCC(=O)NO)cc1 [PX089048, N-(4-Hydroxycarbamoyl-butyl)-4-methoxy-benzamide]	34	–	–
O=C(CCCCNC(=O)c1ccccc1)NO [PX089049, N-(4-Hydroxycarbamoyl-butyl)-benzamide]	–	–	IC50 (HDAC (HeLa cell extract); [1]): > 1 µM
CN(C)c1ccc(C(=O)NCCCCCC(=O)NO)cc1 [PX089274, 4-Dimethylamino-N-(5-hydroxycarbamoyl-pentyl)-benzamide]	–	–	IC50 (HeLa cells): 4.4 µM; IC50 (HDAC (HeLa cell extract); [1]): 0.109 µM; IC50 (HDAC (HeLa cell extract); [3]): 0.11 µM
O=C(/C=C/c1ccc(C(F)(F)F)cc1)NCCC(=O)NO [PX089283, N-(2-Hydroxycarbamoyl-ethyl)-3-(4-trifluoromethyl-phenyl)-acryamide]	21	–	–
O=C(CC(=O)NCCc1ccccc1)NO [PX099268]	–	–	HDAC Inhibition HeLa, percent (HDAC (HeLa cell extract); @ 10 μM): 18% @ 10 μM
CN(C)c1ccc(C=CC(=O)NCCCCCC(=O)NO)cc1 [PX105533]	–	–	IC50 (HDAC (HeLa cell extract); [2]): 0.018 µM
CN(CCCC(=O)NO)C(=O)/C=C/C=C/c1ccccc1 [PX105668]	–	–	IC50 (HDAC (HeLa cell extract); [1]): > 10 µM

Structure (SMILES)	HDAC Inhibition HeLa, percent (HDAC (HeLa cell extract); @ 1 μM) [% @ 1 μM]	HDAC Inhibition HeLa, percent (HDAC (HeLa cell extract); @ 500 nM) [% @ 500 nM]	further results
COc1ccc(/C=C/C=C/C(=O)NCCCC(=O)NO)cc1 [PX105670]	29	–	–
O=C(/C=C/C=C/c1ccc(Br)cc1)NCCCC(=O)NO [PX105816, (2E)(4E)-5-(4-Bromophenyl)penta-2,4-dienoic acid (3-hydroxycarbamoylpropyl)amide]	–	20	–
O=C(/C=C/C=C/c1ccccc1)NCCCCC(=O)NO [PX105832, (2E)(4E)-5-Phenylpenta-2,4-dienoic acid (4-hydroxycarbamoyl-butyl)amide]	–	–	IC50 (HDAC (HeLa cell extract); [1]): 0.438 µM; IC50 (HDAC (HeLa cell extract); [2]): 0.438 µM
O=C(/C=C/C=C/c1ccc(Cl)cc1)NCCCC(=O)NO [PX105845, (2E)(4E)-5-(4-Chlorophenyl)-penta-2,4-dienoic acid (3-hydroxycarbamoylpropyl)-amide]	–	22	–
O=C(/C=C\C=C\c1ccc(Br)cc1)NCCCC(=O)NO [PX105846, (2Z)(4E)-5-(4-Bromophenyl)penta-2,4-dienoic acid (3-hydroxycarbamoyl-propyl)amide]	–	46	–
O=C(/C=C/c1ccccc1)NCCCCCC(=O)NO [PX106517, N-(5-Hydroxycarbamoylpentyl)-3-phenylacrylamide]	–	–	IC50 (HeLa cells): 0.47 µM; IC50 (HDAC (HeLa cell extract); [1]): 0.083 µM; IC50 (HDAC (HeLa cell extract); [3]): 0.083 µM
Nc1nonc1C(=O)NCCCCCC(=O)NO [PX106519, 4-Aminofurazan-3-carboxylic acid (5-hydroxycarbamoylpentyl)amide]	–	46	–
O=C(/C=C/c1ccncc1)NCCCCCC(=O)NO [PX106521, (E)-N-(5-Hydroxycarbamoylpentyl)-3-pyridin-4-yl-acrylamide oxalate]	–	–	IC50 (HeLa cells): 46 µM; IC50 (HDAC (HeLa cell extract); [1]): 0.138 µM
CC(/C=C/c1ccccc1)=C\C(=O)NCCCCCC(=O)NO [PX106526, (2E,4E)-3-Methyl-5-phenylpenta-2,4-dienoic acid (5-hydroxycarbamoylpentyl)-amide]	–	–	IC50 (HeLa cells): 2.1 µM
O=C(/C=C/c1ccccn1)NCCCCCC(=O)NO [PX106528, (E)-N-(5-Hydroxycarbamoylpentyl)-3-pyridin-2-yl-acrylamide oxalate]	–	67	–
O=C(CCCCCNC(=O)CCCc1ccccc1)NO [PX116210, N-Hydroxy-6-[(4-phenylbutanoyl)amino]hexanamide]	–	19	–
O=C(CCCCCNC(=O)c1ccoc1)NO [PX116219, Furan-3-carboxylic acid (5-hydroxycarbamoyl-pentyl)-amide]	–	26	–
O=C(/C=C/C=C/c1ccco1)NCCCCCC(=O)NO [PX116230]	–	–	HDAC Inhibition (IC50 unless otherwise specified) HeLa (HDAC (HeLa cell extract)): insoluble
O=C(/C=C/c1cccnc1)NCCCCCC(=O)NO [PX116231, E-N-(5-Hydroxycarbamoyl-pentyl)-3-pyridin-3-yl-acrylamide oxalate]	–	51	–
O=C(CCCCCCC(=O)NCCc1nc2ccccc2[nH]1)NO [PX116241, N^1-[2-(1H-Benzimidazol-2-yl)ethyl]-N^8-hydroxyoctanediamide]	–	39	IC50 (HeLa cells): 56 µM
O=C(/C=C/c1ccc(NC(=O)c2ccc3ccccc3c2)cc1)NO [PX116246, Naphthalene-2-carboxylic acid [4-(2-hydroxycarbamoyl-vinyl)-phenyl]-amide]	–	52	–
O=C(/C=C/c1ccc(NC(=O)c2ccccc2)cc1)NO [PX117231, N-[4-(2-Hydroxycarbamoyl-vinyl)-phenyl]-benzamide]	–	72	percent HDAC inhibition at the stated concentration (HDAC (HeLa cell extract); comparative tables, @ 1 μM): 72% @ 1 μM
O=C(CCc1ccc(NC(=O)c2ccccc2)cc1)NO [PX117232, N-[4-(2-Hydroxycarbamoyl-ethyl)-phenyl]-benzamide]	–	43	percent HDAC inhibition at the stated concentration (HDAC (HeLa cell extract); comparative tables, @ 1 μM): 43% @ 1 μM
O=C(CCCCCCC(=O)Nc1ccccc1)NO [SAHA, Suberoylanilide Hydroxamic Acid, reference compound]	–	–	IC50 (HeLa cells): 2.2 µM
